Values joined by “and” are separate entries in the source; they are usually repeats but may differ in a detail not shown here. Equal entries are not always repeated.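 Test compounds were applied to cells in 96-well plates for 48 hours at 5 doses. At the GI50, growth is halved.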 Active and inactive are the calls of the source. Cut-off read from the data, not from the text of the source: active = GI50 up to about 1.1 µM and inactive = higher. Square brackets hold non-standard residues; d marks the D form. Peptide text beside a SMILES is read from it. pGlu = O=C1CC[C@@H](C(=O)O)N1; Thz = O=C(O)[C@@H]1CSCN1
What was measured:
Experiment in all cases: DTP human tumour cell line panel, 48 h
BT-549 = tested on: BT-549
DMS-114 = tested on: DMS-114
DMS-273 = tested on: DMS-273
HOP-18 = tested on: HOP-18
KM-20L2 = tested on: KM-20L2
LXFL 529 = tested on: LXFL 529
M19-MEL = tested on: M19-MEL
XF498 = tested on: XF498

For `CCC(CS(=O)(=O)O)[N+](=O)[O-]` (stereo unspecified), the GI50 (BT-549) was > 100 µM (inactive).

`O=C1/C(=C\c2ccc([N+](=O)[O-])o2)SC2NC(COc3ccc(Cl)cc3)=NN12` (stereo unspecified) was tested, and the GI50 (BT-549) was 9.84 µM (inactive).

`O=C(O)/C(Cl)=C(\Cl)C(=O)Nc1ccc(Cl)c(Cl)c1Cl` was tested, and the GI50 (DMS-114) was 20.8 µM (inactive), the GI50 (DMS-273) was 21 µM (inactive) and the GI50 (HOP-18) was 16.3 µM (inactive). The GI50 (KM-20L2) was 23.2 µM (inactive), the GI50 (LXFL 529) was 20.1 µM (inactive) and the GI50 (M19-MEL) was 16.8 µM (inactive).

With `COC(=O)[C@@]1(NC(=O)C(CC(=O)OC(C)(C)C)NC(=O)OC(C)(C)C)C[C@H]1C` (stereo partly specified) the GI50 (BT-549) was > 100 µM (inactive).

In the case of `COc1cc(Br)c(/C=N\c2cccc3ccc(OS(=O)(=O)c4cccc([N+](=O)[O-])c4)cc23)cc1OC`, the GI50 (DMS-114) is reported as 14.7 µM (inactive), the GI50 (HOP-18) is reported as > 100 µM (inactive) and the GI50 (LXFL 529) is reported as 14.3 µM (inactive). For the same compound, the GI50 (M19-MEL) was 36.1 µM (inactive).

With `Sc1ncnc2c1ncn2C1CCCO1` (stereo unspecified) the GI50 (DMS-114) was 65.8 µM (inactive), the GI50 (DMS-273) was 76.2 µM (inactive) and the GI50 (HOP-18) was > 100 µM (inactive). For the same compound, the GI50 (KM-20L2) was > 100 µM (inactive) and the GI50 (LXFL 529) was > 100 µM (inactive).

In the case of `O=C(O)C[C@@H]1[C@@H](O)[C@@H](O)CN2C(=O)c3ccccc3[C@H]12`, the GI50 (BT-549) is reported as > 100 µM (inactive).

For `O=C1CC[C@@H](C(=O)N2CSC[C@H]2C(=O)O)N1` [PIDOTIMOD] ([pGlu]-[Thz]-OH), the GI50 (BT-549) was > 100 µM (inactive).

`COc1cccc(N2N=C3c4ccccc4-n4c(nc5ccccc54)C3C2N)c1` (stereo unspecified) was tested, and the GI50 (BT-549) was > 100 µM (inactive).

For `N#Cc1cc2c(cc1C#N)SCCSCCCSCCS2`, the GI50 (BT-549) was 15 µM (inactive).

`N#Cc1nc(-c2cc([N+](=O)[O-])cc([N+](=O)[O-])c2)oc1N` was tested, and the GI50 (BT-549) was > 10 µM (inactive).

For `CCOc1cc(CCNC)c2c(ccc3ccc(OC)c(O)c32)c1OC`, the GI50 (BT-549) was 16.3 µM (inactive).

With `COC(=O)/N=C(\NC(=O)OC)Nc1ccc(Oc2ccccc2)cc1NC=O` the GI50 (DMS-114) was 0.253 µM (active), the GI50 (HOP-18) was > 100 µM (inactive) and the GI50 (KM-20L2) was 0.242 µM (active). The GI50 (LXFL 529) was 0.667 µM (active), the GI50 (M19-MEL) was 0.312 µM (active) and the GI50 (XF498) was 0.369 µM (active).

In the case of `COc1ccc2cc1Oc1ccc(cc1)C[C@H]1c3cc(c(OC)cc3CCN1C)Oc1c(OC)c(OC)cc3c1[C@H](C2)N(C)CC3` [FANCHININ], the GI50 (DMS-114) is reported as 7.36 µM (inactive), the GI50 (DMS-273) is reported as 6.31 µM (inactive) and the GI50 (HOP-18) is reported as 9.42 µM (inactive). For the same compound, the GI50 (KM-20L2) was 3.8 µM (inactive) and the GI50 (XF498) was 10.6 µM (inactive).

`COC(=O)c1ccc(C)cc1C1CN=NC12Cc1cccc(C)c1C2=O` (stereo unspecified) was tested, and the GI50 (BT-549) was 25.6 µM (inactive).

In the case of `Cc1cc(C(O)CNC(C)CCn2cnc3c2c(=O)n(C)c(=O)n3C)ccc1O` (stereo unspecified), the GI50 (BT-549) is reported as > 100 µM (inactive).

`COC(=O)C1=C(OC(=O)/C(=C/c2ccccc2)c2ccc(Cl)cc2)C(C(=O)OC)[C@@]2(O)[C@@H](C(=O)OC)[C@H](C)C[C@@H]1[C@@H]2C(=O)OC` (stereo partly specified) was tested, and the GI50 (BT-549) was > 100 µM (inactive).

`CCN(CC)CCNc1ccc2nnn3c4ccc(O)cc4c(=O)c1c23` was tested, and the GI50 (BT-549) was 12.7 µM (inactive), the GI50 (DMS-114) was 7.29 µM (inactive) and the GI50 (HOP-18) was 20.5 µM (inactive). The GI50 (KM-20L2) was 4.37 µM (inactive) and the GI50 (LXFL 529) was 6.58 µM (inactive).

`COc1ccc(-c2oc3cc(OC)c(OC)c(O)c3c(=O)c2OC)cc1` was tested, and the GI50 (BT-549) was 18 µM (inactive).

`CC(CCc1ccccc1)NCC(O)n1c(/N=N/N(C)C)nc2c1c(=O)n(C)c(=O)n2C` (stereo unspecified) was tested, and the GI50 (BT-549) was > 100 µM (inactive).

`Cc1c2c(c(C)n1-c1ccccc1)C(=O)N(CCSC(=N)N)C2=O` was tested, and the GI50 (BT-549) was > 100 µM (inactive).

In the case of `CC(C)C1(NC(=O)C2CC3c4cccc5[nH]cc(c45)CC3N(C)C2)OC2(O)C3CCCN3C(=O)C(Cc3ccccc3)N2C1=O` (stereo unspecified), the GI50 (BT-549) is reported as 55 µM (inactive).

In the case of `CCO/C(=N/S(=O)(=O)C(F)(F)F)N(C(C)C)C(C)C`, the GI50 (BT-549) is reported as > 100 µM (inactive).

`C=C1C2CCCC1C1(S(C)(=O)=O)CCCCC21O` (stereo unspecified) was tested, and the GI50 (DMS-114) was > 100 µM (inactive), the GI50 (DMS-273) was > 100 µM (inactive) and the GI50 (HOP-18) was > 100 µM (inactive). For the same compound, the GI50 (KM-20L2) was > 100 µM (inactive), the GI50 (LXFL 529) was > 100 µM (inactive) and the GI50 (M19-MEL) was > 100 µM (inactive).

In the case of `CSc1nc(O)c(C#N)c(-c2ccc(Cl)cc2)n1`, the GI50 (BT-549) is reported as > 100 µM (inactive).

For `O=C(CCCl)NN=C1NCCN1`, the GI50 (BT-549) was > 100 µM (inactive).

With `Cc1cc(C)c(O)c(CN2CCN(C(C)C)CCN(C(C)C)CC2)c1` the GI50 (BT-549) was 22 µM (inactive).

For `O=C(/C=C/c1cccs1)c1cccc(C(=O)/C=C/c2cccs2)n1`, the GI50 (BT-549) was 42.8 µM (inactive).

For `CCC(=O)O[C@H]1CC[C@H]2[C@@H]3CCC4=C/C(=N/OC(=O)c5cccc6cc7ccccc7nc56)CC[C@]4(C)[C@H]3CC[C@]12C`, the GI50 (BT-549) was 63.8 µM (inactive).

With `O=C(NNC(=S)Nc1ccccc1)C12CC3CC(CC(C3)C1)C2` the GI50 (BT-549) was 9.1 µM (inactive).

For `C[C@]12CC[C@H](O)CC1=CC[C@@H]1[C@@H]2CC[C@]2(C)C(=N/O)/C(=C/c3ccc([N+](=O)[O-])cc3)C[C@@H]12`, the GI50 (BT-549) was 10.5 µM (inactive).

In the case of `CCC1OCCN1C(C)C` (stereo unspecified), the GI50 (DMS-114) is reported as 85.9 µM (inactive), the GI50 (DMS-273) is reported as 69.2 µM (inactive) and the GI50 (KM-20L2) is reported as > 100 µM (inactive). The GI50 (LXFL 529) was > 100 µM (inactive) and the GI50 (M19-MEL) was 71.4 µM (inactive).

For `CSc1nc(SC)c2c(C)cn(C3OC(C)C(O)C(O)C3O)c2n1` (stereo unspecified), the GI50 (BT-549) was 39.2 µM (inactive).

`O=C1C=C2C(=NC34CCCCC3C(c3ccccc3)C3=C(c5ccccc5CC3)N24)c2ccccc21` (stereo unspecified) was tested, and the GI50 (BT-549) was > 10 µM (inactive).

With `Nc1ncnc2c1ncn2[C@H]1C=C[C@@H](NO)C1` the GI50 (BT-549) was > 100 µM (inactive).

In the case of `CCc1nc(N)nc(N)c1-c1ccc(Cl)c(N=[N+]=[N-])c1`, the GI50 (HOP-18) is reported as 0.916 µM (active), the GI50 (KM-20L2) is reported as 12.1 µM (inactive) and the GI50 (LXFL 529) is reported as 6.24 µM (inactive). The GI50 (M19-MEL) was 11.9 µM (inactive) and the GI50 (XF498) was 31 µM (inactive).

With `COc1ccc2c(c1)/C(=C\c1c(Cl)nc3sc(C)cn13)C(=O)N2` the GI50 (BT-549) was 5.21 µM (inactive).

`CC(=O)NNc1nc(C)c(C(/C=C/c2ccc([N+](=O)[O-])cc2)=N/N)s1` was tested, and the GI50 (BT-549) was > 100 µM (inactive).

`COC(=O)C1=C(C(=O)OC)N(c2ccncc2)C(c2ccco2)=CC1c1ccccc1[N+](=O)[O-]` (stereo unspecified) was tested, and the GI50 (BT-549) was 6.7 µM (inactive).

In the case of `C=C(Cl)C(Cl)(CBr)CCC(Br)C(C)(C)Cl` (stereo unspecified), the GI50 (BT-549) is reported as 2.05 µM (inactive) and 1.04 µM (active) and 1.79 µM (inactive).

`Cc1n[nH]c(C(F)(F)F)c1/N=N/N1CCOCC1` was tested, and the GI50 (BT-549) was 12.4 µM (inactive).

For `O=c1[nH]ccc(CNC23CC4CC(CC(C4)C2)C3)c1O`, the GI50 (DMS-273) was > 100 µM (inactive), the GI50 (HOP-18) was > 100 µM (inactive) and the GI50 (KM-20L2) was > 100 µM (inactive). The GI50 (LXFL 529) was > 100 µM (inactive), the GI50 (M19-MEL) was > 100 µM (inactive) and the GI50 (XF498) was > 100 µM (inactive).

`O=C(c1ccccc1)c1ccc(N2C(=O)/C(=C/c3cccc(Oc4ccccc4)c3)N=C2c2ccccc2)c(N2C(=O)/C(=C/c3cccc(Oc4ccccc4)c3)N=C2c2ccccc2)c1` was tested, and the GI50 (BT-549) was 24.7 µM (inactive).

In the case of `CCN(CC)c1c(C(=O)/C=C/c2ccccc2)c(-c2ccccc2)nn(C)c1=O`, the GI50 (DMS-114) is reported as 5.32 µM (inactive), the GI50 (DMS-273) is reported as 4.98 µM (inactive) and the GI50 (KM-20L2) is reported as 5.06 µM (inactive). For the same compound, the GI50 (LXFL 529) was 5.01 µM (inactive), the GI50 (M19-MEL) was > 100 µM (inactive) and the GI50 (XF498) was 11.2 µM (inactive).

`Nc1nc(O)c2nc(CNc3ccc(C(=O)NC(CCC(=O)O)C(=O)O)cc3)cnc2n1` (stereo unspecified) was tested, and the GI50 (BT-549) was > 100 µM (inactive).

With `CCn1c(-c2ccccc2)nc2c1C(=O)c1ccccc1C2=O` the GI50 (BT-549) was 24.9 µM (inactive).

In the case of `C[C@]12Cc3cn[nH]c3C(=O)C1CC[C@@H]1C2CC[C@@]2(C)C1CC[C@@H]2O` (stereo partly specified), the GI50 (DMS-114) is reported as > 100 µM (inactive), the GI50 (DMS-273) is reported as > 100 µM (inactive) and the GI50 (HOP-18) is reported as > 100 µM (inactive). For the same compound, the GI50 (KM-20L2) was > 100 µM (inactive), the GI50 (LXFL 529) was > 100 µM (inactive) and the GI50 (XF498) was > 100 µM (inactive).

For `Cc1ccc(C(=O)NC2CCCCC2)cc1/N=N/N(C)C`, the GI50 (DMS-273) was > 100 µM (inactive), the GI50 (KM-20L2) was > 100 µM (inactive) and the GI50 (LXFL 529) was > 100 µM (inactive). For the same compound, the GI50 (M19-MEL) was > 100 µM (inactive).

For `CC1(C)CCC[C@@]2(C)C1CC[C@@]1(CO)O[C@H](C3=CC(=O)OC3O)C[C@H]12` (stereo partly specified), the GI50 (BT-549) was 8.26 µM (inactive).

`O=C(Nc1nnc(-c2c(Cl)c(Cl)c(Cl)c(Cl)c2-c2nc3cc(C(=O)c4ccccc4)ccc3[nH]2)o1)c1ccccc1` was tested, and the GI50 (BT-549) was 23.5 µM (inactive).

From ChEMBL document CHEMBL1201862, “PubChem BioAssay data set” (2004)
